Source: patent publication US20250215012A1, “IKZF2 DEGRADERS AND USES THEREOF” (REGENTS OF THE UNIVERSITY OF MICHIGAN, priority 2022, published 2025)
pIC50: −log10 of the molar value.

Legend:
[1] = target: His tagged CRBN+DDB−DLS7+CXU4 (Homo sapiens (Human), UniProt Q96SW2); assay: IC50 Measurements for Binding to CRBN/DDBI (HTRF); details: Cy5-labeled Thalidomide probe, one hour incubation
IKZF2 = IKZF2 (Homo sapiens (Human), UniProt Q96SW2+Q9UKS7); assay: IKZF2 HiBit Assay (HEK293T Flp-in-HiBiT cells); format: cell-based; details: HEK293T Flp-in-HiBiT cells, 6 hrs; for DC50: read-out: IKZF2 HiBit degradation DC50; for Dmax: HEK-293T, read-out: IKZF2 HiBit degradation Dmax
IKZF2, sequence (Q9UKS7 whole entry): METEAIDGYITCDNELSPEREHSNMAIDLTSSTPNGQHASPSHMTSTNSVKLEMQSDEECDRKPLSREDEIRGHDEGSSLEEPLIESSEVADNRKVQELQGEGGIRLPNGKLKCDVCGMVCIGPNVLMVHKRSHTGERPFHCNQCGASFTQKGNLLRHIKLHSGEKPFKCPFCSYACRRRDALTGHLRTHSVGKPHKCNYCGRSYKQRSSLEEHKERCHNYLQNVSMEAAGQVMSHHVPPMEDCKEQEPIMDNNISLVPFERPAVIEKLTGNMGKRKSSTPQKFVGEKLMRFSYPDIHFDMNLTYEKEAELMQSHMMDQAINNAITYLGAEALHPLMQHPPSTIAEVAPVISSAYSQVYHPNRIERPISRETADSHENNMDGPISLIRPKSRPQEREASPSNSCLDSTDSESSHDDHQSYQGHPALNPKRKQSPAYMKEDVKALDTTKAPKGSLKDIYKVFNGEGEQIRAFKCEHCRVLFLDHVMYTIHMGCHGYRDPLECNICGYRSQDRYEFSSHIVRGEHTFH
IKZF2, sequence (Q96SW2 whole entry): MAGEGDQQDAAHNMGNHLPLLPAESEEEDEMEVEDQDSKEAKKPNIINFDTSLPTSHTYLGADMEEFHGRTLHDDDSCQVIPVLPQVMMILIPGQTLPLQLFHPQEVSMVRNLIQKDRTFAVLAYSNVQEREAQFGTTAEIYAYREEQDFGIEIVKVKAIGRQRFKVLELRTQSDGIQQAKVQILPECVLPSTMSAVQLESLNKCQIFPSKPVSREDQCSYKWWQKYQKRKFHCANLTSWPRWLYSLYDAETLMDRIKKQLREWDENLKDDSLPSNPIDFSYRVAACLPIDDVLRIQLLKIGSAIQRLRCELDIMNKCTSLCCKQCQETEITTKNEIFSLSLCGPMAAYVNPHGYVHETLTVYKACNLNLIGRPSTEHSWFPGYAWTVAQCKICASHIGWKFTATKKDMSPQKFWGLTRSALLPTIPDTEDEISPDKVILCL
IKZF2, sequence (Q16531 whole entry partner): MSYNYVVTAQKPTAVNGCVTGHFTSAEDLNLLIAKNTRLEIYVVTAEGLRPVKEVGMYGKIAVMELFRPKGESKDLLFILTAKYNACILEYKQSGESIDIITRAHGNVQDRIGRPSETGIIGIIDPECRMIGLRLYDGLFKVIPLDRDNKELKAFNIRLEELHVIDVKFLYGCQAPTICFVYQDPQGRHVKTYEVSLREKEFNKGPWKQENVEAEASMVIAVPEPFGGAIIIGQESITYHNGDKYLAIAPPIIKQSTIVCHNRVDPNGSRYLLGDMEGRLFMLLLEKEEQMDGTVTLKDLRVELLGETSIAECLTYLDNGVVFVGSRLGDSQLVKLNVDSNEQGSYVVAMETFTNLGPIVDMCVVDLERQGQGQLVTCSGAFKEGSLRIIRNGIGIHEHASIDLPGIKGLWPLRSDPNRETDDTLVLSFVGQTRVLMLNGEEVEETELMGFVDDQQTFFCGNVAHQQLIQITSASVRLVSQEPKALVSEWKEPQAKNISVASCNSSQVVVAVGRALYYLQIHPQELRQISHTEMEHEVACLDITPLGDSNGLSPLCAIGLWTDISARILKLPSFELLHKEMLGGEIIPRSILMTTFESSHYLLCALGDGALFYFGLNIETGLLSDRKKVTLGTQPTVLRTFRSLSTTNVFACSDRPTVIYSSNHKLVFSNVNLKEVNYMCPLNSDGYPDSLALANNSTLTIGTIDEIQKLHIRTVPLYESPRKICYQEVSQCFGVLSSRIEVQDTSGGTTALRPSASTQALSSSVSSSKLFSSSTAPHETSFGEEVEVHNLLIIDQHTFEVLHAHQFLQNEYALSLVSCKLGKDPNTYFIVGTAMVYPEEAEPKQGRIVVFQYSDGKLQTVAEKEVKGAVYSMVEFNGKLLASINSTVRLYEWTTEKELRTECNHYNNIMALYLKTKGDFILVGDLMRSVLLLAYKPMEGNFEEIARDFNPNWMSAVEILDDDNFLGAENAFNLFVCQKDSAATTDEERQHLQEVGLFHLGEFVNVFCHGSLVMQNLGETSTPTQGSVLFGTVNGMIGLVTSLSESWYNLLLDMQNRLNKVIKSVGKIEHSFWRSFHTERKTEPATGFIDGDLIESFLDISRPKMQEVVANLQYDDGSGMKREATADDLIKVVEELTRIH
Protocol: The HiBiT protein tagging system was applied to modified HEK293T Flp-in-HiBiT cells (polyclone) via a CRISPR/Cas9—mediated insertion of the HiBiT peptide tag (Promega™) to the N-terminus of the IKZF2 gene locus (Neon™ transfection system). Test and reference compounds are diluted from 1 mM at 3 folds for 11 doses. 25 nL of diluted compound is transferred to assay plates (Corning3570) using ECHO550, the final DMSO concentration @0.1%. The cells are seeded in 3000/[…]/well to compound plates. It is then incubated for 6 hrs in TC incubator. The amount of Nano-Glo® HiBiT lytic reagent needed to perform the desired experiments is calculated. The Nano-Glo® HiBiT lytic reagent is brought to room temperature. The LgBiT protein is diluted to 1:100 and the Nano-Glo® HiBiT lytic substrate is diluted to 1:50 into an appropriate volume of room temperature Nano-Glo® HiBiT lytic buffer. […] of the detection reagent (or without LgBiT) is dispensed to corresponding well according to the layout. The plate is then shaked for 10 mins at room temperature. After briefly centrifuge, the plate is read on Envision. At the indicated timepoints, the Nano-Glo® HiBiT lytic detection system (Promega™) was utilized for detecting bioluminescence of the HiBiT tag in treated cells: abundance of the tag is proportionate to the level of luminescence. Following normalization to DMSO, dose-response curves were plotted (GraphPad Prism) to determine the concentration points at which 50% of HiBiT-Helios degradation was achieved by each compound. The extent of degradation (range of luminescence) from the highest to lowest concentration points was calculated to determine the Dmax.

IKZF1 = IKZF1 (Homo sapiens (Human), UniProt Q13422+Q96SW2); assay: IKZF1 HiBit Assay (HEK293T Flp-in-HiBiT-IKZF1 stable cell line); format: cell-based; details: HEK293T Flp-in-HiBiT-IKZF1 cells, 6 hrs; for DC50: read-out: IKZF1 HiBit degradation DC50; for Dmax: HEK-293T, read-out: IKZF1 HiBit degradation Dmax
IKZF1, sequence (Q13422 whole entry): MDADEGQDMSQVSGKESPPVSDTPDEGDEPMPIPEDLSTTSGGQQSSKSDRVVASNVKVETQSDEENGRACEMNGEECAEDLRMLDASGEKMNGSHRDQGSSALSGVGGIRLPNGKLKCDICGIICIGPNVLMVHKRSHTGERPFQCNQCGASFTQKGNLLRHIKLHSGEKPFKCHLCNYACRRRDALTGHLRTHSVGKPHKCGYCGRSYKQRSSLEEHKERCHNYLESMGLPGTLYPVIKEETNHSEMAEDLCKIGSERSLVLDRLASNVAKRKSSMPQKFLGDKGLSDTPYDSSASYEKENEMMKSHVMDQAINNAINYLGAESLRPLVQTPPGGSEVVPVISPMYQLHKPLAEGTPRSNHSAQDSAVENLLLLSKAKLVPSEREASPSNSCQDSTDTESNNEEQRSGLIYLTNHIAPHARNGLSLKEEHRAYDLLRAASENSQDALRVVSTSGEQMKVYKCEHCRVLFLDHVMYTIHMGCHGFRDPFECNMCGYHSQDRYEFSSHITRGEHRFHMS
IKZF1, sequence (Q96SW2 whole entry): as the sequence (Q96SW2 whole entry) above
IKZF1, sequence (Q16531 whole entry partner): as the sequence (Q16531 whole entry partner) above
Protocol: The HiBiT protein tagging system was applied to modified Cells: modified HEK293T Flp-in-HiBiT-IKZF1 stable cell line (polyclone) via a CRISPR/Cas9—mediated insertion of the HiBiT peptide tag (Promega™) to the N-terminus of the IKZF2 gene locus (Neon™ transfection system).
Test compound from 10 mM and reference compound (CC-92480 from 50 mM and I-57 from 10 mM) are diluted at 3 folds for 11 doses. 25 nL of diluted compound is transferred to assay plates (Corning3571) using ECHO550, the final DMSO concentration @0.1%. The cells are seeded in 3000/[…]/well to compound plates. The plates are incubated for 6 hrs in TC incubator. The amount of Nano-Glo® HiBiT lytic reagent needed to perform the desired experiments is calculated. The Nano-Glo® HiBiT lytic reagent is brought to room temperature. The LgBiT protein is diluted to 1:100 and the Nano-Glo® HiBiT lytic substrate is brought to 1:50 into an appropriate volume of room temperature Nano-Glo® HiBiT lytic buffer. […] of the detection reagent (or without LgBiT) is dispensed to corresponding well according to the layout. The plate is shaked for 10 mins at room temperature. After briefly centrifuging, the plate is read on Envision. At the indicated timepoints, the Nano-Glo® HiBiT lytic detection system (Promega™) was utilized for detecting bioluminescence of the HiBiT tag in treated cells: abundance of the tag is proportionate to the level of luminescence. Following normalization to DMSO, dose-response curves were plotted (GraphPad Prism) to determine the concentration points at which 50% of HiBiT-Ikaros degradation was achieved by each compound. The extent of degradation (range of luminescence) from the highest to lowest concentration points was calculated to determine the Dm.

His tagged CRBN+DDB−DLS7+CXU4, sequence (Q96SW2 whole entry): as the sequence (Q96SW2 whole entry) above
His tagged CRBN+DDB−DLS7+CXU4, sequence (Q16531 whole entry partner): as the sequence (Q16531 whole entry partner) above

SMILES | pIC50 [1] | DC50 (IKZF2) [nM] | Dmax (IKZF2) [%] | DC50 (IKZF1) [nM] | Dmax (IKZF1) [%]
O=C1CC[C@H](N2Cc3c(ccc4c3OCC43CCN(Cc4cnn(S(=O)(=O)c5ccccc5Cl)c4)CC3(F)F)C2=O)C(=O)N1 (stereo partly drawn) [Compound B29, (3S)-3-(1′-((1-((2-chlorophenyl)sulfonyl)-1H-pyrazol-4-yl)methyl)-3′,3′-difluoro-6-oxo-6,8-dihydro-2H,7H-spiro[furo[2,3-e]isoindole-3,4′-piperidin]-7-yl)piperidine-2,6-dione] | > 7.00 | < 1 | > 80 | 1 to 10 | > 40
O=C1CC[C@H](N2Cc3c(ccc4c3OCC43CCN(Cc4cnn(-c5ccc(Cl)cc5)c4)CC3(F)F)C2=O)C(=O)N1 (stereo partly drawn) [Compound B30, (3S)-3-(1′-((1-(4-chlorophenyl)-1H-pyrazol-4-yl)methyl)-3′,3′-difluoro-6-oxo-6,8-dihydro-2H,7H-spiro[furo[2,3-e]isoindole-3,4′-piperidin]-7-yl)piperidine-2,6-dione] | 5.30 to 6.00 | 1 to 10 | 60 to 80 | > 1000 | < 20
O=C1CC[C@H](N2Cc3c(ccc4c3OCC43CCN(Cc4ccc5c(c4)C(=O)NC5)CC3(F)F)C2=O)C(=O)N1 (stereo partly drawn) [Compound B31, (3S)-3-(3′,3′-difluoro-6-oxo-1′-((3-oxoisoindolin-5-yl)methyl)-6,8-dihydro-2H,7H-spiro[furo[2,3-e]isoindole-3,4′-piperidin]-7-yl)piperidine-2,6-dione] | 6.30 to 7.00 | 1 to 10 | 60 to 80 | > 1000 | < 20
Cn1cc2ccc(CN3CCC4(COc5c4ccc4c5CN([C@H]5CCC(=O)NC5=O)C4=O)C(F)(F)C3)cc2n1 (stereo partly drawn) [Compound B35, (3S)-3-(3′,3′-difluoro-1′-((2-methyl-2H-indazol-6-yl)methyl)-6-oxo-6,8-dihydro-2H,7H-spiro[furo[2,3-e]isoindole-3,4′-piperidin]-7-yl)piperidine-2,6-dione] | > 7.00 | 1 to 10 | 60 to 80 | > 1000 | < 20
Cn1cc2cccc(CN3CCC4(COc5c4ccc4c5CN([C@H]5CCC(=O)NC5=O)C4=O)C(F)(F)C3)c2n1 (stereo partly drawn) [Compound B36, (3S)-3-(3′,3′-difluoro-1′-((2-methyl-2H-indazol-7-yl)methyl)-6-oxo-6,8-dihydro-2H,7H-spiro[furo[2,3-e]isoindole-3,4′-piperidin]-7-yl)piperidine-2,6-dione] | 6.30 to 7.00 | 1 to 10 | 60 to 80 | < 1 | 20 to 40
Cn1cc2cc(CN3CCC4(COc5c4ccc4c5CN([C@H]5CCC(=O)NC5=O)C4=O)C(F)(F)C3)ccc2n1 (stereo partly drawn) [Compound B37, (3S)-3-(3′,3′-difluoro-1′-((2-methyl-2H-indazol-5-yl)methyl)-6-oxo-6,8-dihydro-2H,7H-spiro[furo[2,3-e]isoindole-3,4′-piperidin]-7-yl)piperidine-2,6-dione] | > 7.00 | 1 to 10 | 60 to 80 | > 1000 | < 20
Cn1ncc2cc(CN3CCC4(COc5c4ccc4c5CN([C@H]5CCC(=O)NC5=O)C4=O)C(F)(F)C3)ccc21 (stereo partly drawn) [Compound B38, (3S)-3-(3′,3′-difluoro-1′-((1-methyl-1H-indazol-5-yl)methyl)-6-oxo-6,8-dihydro-2H,7H-spiro[furo[2,3-e]isoindole-3,4′-piperidin]-7-yl) piperidine-2,6-dione] | 6.30 to 7.00 | 1 to 10 | 60 to 80 | > 1000 | < 20
Cn1cc(-c2cccc(CN3CCC4(COc5c4ccc4c5CN([C@H]5CCC(=O)NC5=O)C4=O)C(F)(F)C3)c2)cn1 (stereo partly drawn) [Compound B39, (3S)-3-(3′,3′-difluoro-1′-(3-(1-methyl-1H-pyrazol-4-yl)benzyl)-6-oxo-6,8-dihydro-2H,7H-spiro[furo[2,3-e]isoindole-3,4′-piperidin]-7-yl) piperidine-2,6-dione] | 6.30 to 7.00 | < 1 | 60 to 80 | > 1000 | < 20
O=C1CC[C@H](N2Cc3c(ccc4c3OCC43CCN(Cc4ccc5[nH]ncc5c4)CC3(F)F)C2=O)C(=O)N1 (stereo partly drawn) [Compound B40, (3S)-3-(1′-((1H-indazol-5-yl)methyl)-3′,3′-difluoro-6-oxo-6,8-dihydro-2H,7H-spiro[furo[2,3-e]isoindole-3,4′-piperidin]7-yl) piperidine-2,6-dione] | 6.30 to 7.00 | 1 to 10 | 60 to 80 | > 1000 | < 20
O=C1CC[C@H](N2Cc3c(ccc4c3OCC43CCN(Cc4cccc5[nH]ncc45)CC3(F)F)C2=O)C(=O)N1 (stereo partly drawn) [Compound B41, (3S)-3-(1′-((1H-indazol-4-yl)methyl)-3′,3′-difluoro-6-oxo-6,8-dihydro-2H,7H-spiro[furo[2,3-e]isoindole-3,4′-piperidin]-7-yl)piperidine-2,6-dione] | 6.30 to 7.00 | 1 to 10 | 60 to 80 | 10 to 100 | 20 to 40
Cn1cc2c(CN3CCC4(COc5c4ccc4c5CN([C@H]5CCC(=O)NC5=O)C4=O)C(F)(F)C3)cccc2n1 (stereo partly drawn) [Compound B42, (3S)-3-(3′,3′-difluoro-1′-((2-methyl-2H-indazol-4-yl)methyl)-6-oxo-6,8-dihydro-2H,7H-spiro[furo[2,3-e]isoindole-3,4′-piperidin]-7-yl)piperidine-2,6-dione] | 6.30 to 7.00 | 1 to 10 | 60 to 80 | > 1000 | < 20
Cn1ncc2c(CN3CCC4(COc5c4ccc4c5CN([C@H]5CCC(=O)NC5=O)C4=O)C(F)(F)C3)cccc21 (stereo partly drawn) [Compound B43, (3S)-3-(3′,3′-difluoro-1′-((1-methyl-1H-indazol-4-yl)methyl)-6-oxo-6,8-dihydro-2H,7H-spiro[furo[2,3-e]isoindole-3,4′-piperidin]-7-yl)piperidine-2,6-dione] | 5.30 to 6.00 | 1 to 10 | 60 to 80 | > 1000 | < 20
O=C1CC[C@H](N2Cc3c(ccc4c3OCC43CCN(Cc4cccc5cn[nH]c45)CC3(F)F)C2=O)C(=O)N1 (stereo partly drawn) [Compound B44] | > 7.00 | 1 to 10 | > 80 | 100 to 1000 | 20 to 40
Cn1ncc2cccc(CN3CCC4(COc5c4ccc4c5CN([C@H]5CCC(=O)NC5=O)C4=O)C(F)(F)C3)c21 (stereo partly drawn) [Compound B45, (3S)-3-(3′,3′-difluoro-1′-((1-methyl-1H-indazol-7-yl)methyl)-6-oxo-6,8-dihydro-2H,7H-spiro[furo[2,3-e]isoindole-3,4′-piperidin]-7-yl)piperidine-2,6-dione] | 6.30 to 7.00 | 1 to 10 | > 80 | 10 to 100 | 20 to 40
[2H]C([2H])(c1cccc(-c2cnn(C([2H])([2H])[2H])c2)c1)N1CCC2(COc3c2ccc2c3CN([C@H]3CCC(=O)NC3=O)C2=O)C(F)(F)C1 (stereo partly drawn) [Compound B48, (3S)-3-(3′,3′-difluoro-1′-((3-(1-(methyl-d3)-1H-pyrazol-4-yl)phenyl)methyl-d2)-6-oxo-6,8-dihydro-2H,7H-spiro[furo[2,3-e]isoindole-3,4′-piperidin]-7-yl)piperidine-2,6-dione] | 6.30 to 7.00 | < 1 | 60 to 80 | > 1000 | < 20
